# According to patent publication US20120225092A1, “COSMETIC USE OF SKIN CELL AUTOPHAGY ACTIVATORS” (SOCIETE INDUSTRIELLE LIMOUSINE D'APPLICATION BIOLOGIQUE …, priority 2008, published 2012):
# Read-outs that look alike come from different tables or passages of the source.
# How the values were obtained:
# MAP-LC3 [1] = settings: relative to control without stress
# Experimental: This study has as its objective to compare the autophagy level of young cells (from donors with a mean age of 26 years) and aged cells (from donors with a mean age of 70 years) that are subjected to the same oxidative and nutritive stresses.
# The evaluation of the autophagy level was considered by the analysis of the expression of the protein MAP-LC3 by Western Blott.
# The protocol that is put into place is as follows: • Cultures of so-called young or aged cells for 24 hours in the complete culture medium, • Removal of the complete culture medium, replacement with the non-nutritive culture medium that contains the oxidizing agent H2O2 for 3 hours at different doses, • Removal of the oxidizing agent, replacement by the complete culture medium without an oxidizing agent, • Evaluation of the expression of MAP-LC3 after cellular recovery.
# MAP-LC3 [2] = system: MAP-LC3
# Experimental: (§1) The protocol is as follows: • Cultivation of cells for 24 hours in a complete culture medium. • Removal of the culture medium and replacement with the non-nutritive culture medium that contains the oxidizing agent H2O2 for 3 hours (different doses of H2O2—125 μM and/or 250 μM—have been tested). • Removal of the oxidizing agent and the non-nutritive culture medium, replacement by a complete culture medium without an oxidizing agent. • Evaluation of the expression of MAP-LC3, the phosphorylated protein p53, or the protein DRAM after cellular recovery. Several recovery times have been selected (0.5 hour, 1 hour, 1.5 hours, or 2 hours of recovery).
# It is possible to evaluate the autophagy of stressed cutaneous cells by visualizing the expression of the protein MAP-LC3 by immunofluorescent marking.
# The evaluation of the expression MAP-LC3 was analyzed under these moderate stress conditions (125 μM and 250 μM of hydrogen peroxide H2O2) on HaCaT keratinocyte cultures and on normal human keratinocytes. With the immunomarking results being qualitative, several levels of expression of ATG5-12 were defined: […]
# protein DRAM = settings: H2O2 125 μM, relative to control without stress
# Experimental: as §1
# It is also possible to evaluate the autophagy of stressed cutaneous cells by visualizing the expression of the protein DRAM by Western Blott.
# The evaluation of the expression of DRAM was therefore analyzed under these moderate stress conditions with 125 μM of H2O2 on HaCaT keratinocyte cultures and on normal human keratinocytes. The expression of DRAM is presented in the table below in percentage relative to the control (without stress).
# [3] = system: phosphorylated protein p53; settings: H2O2 125 μM, relative to control without stress
# Experimental: as §1
# It is also possible to evaluate the autophagy of stressed cutaneous cells by visualizing the expression of the phosphorylated protein p53 by Western Blott.
# The evaluation of the expression of the phosphorylated protein p53 has therefore been analyzed under these moderate stress conditions with 125 μM of H2O2 on HaCaT keratinocyte cultures and on normal human keratinocytes. The expression of phosphorylated p53 is presented in the table below in percentage relative to the control (without stress).
smiles,measurement,setting,value
"OO [H2O2, hydrogen peroxide]",Expression of MAP-LC3 On Aged Cells,"MAP-LC3 [1]; H2O2 125 μM for 3 hours, aged cells (donors mean age 70 years)",138%
same,Expression of MAP-LC3 On Young Cells,"MAP-LC3 [1]; H2O2 125 μM for 3 hours, young cells (donors mean age 26 years)",172%
same,Expression of MAP-LC3 On Aged Cells,"MAP-LC3 [1]; H2O2 250 μM for 3 hours, aged cells",187%
same,Expression of MAP-LC3 On Young Cells,"MAP-LC3 [1]; H2O2 250 μM for 3 hours, young cells",322%
same,Expression of MAP-LC3 On Aged Cells,"MAP-LC3 [1]; H2O2 400 μM for 3 hours, aged cells",135%
same,Expression of MAP-LC3 On Young Cells,"MAP-LC3 [1]; H2O2 400 μM for 3 hours, young cells",168%
same,Expression of MAP-LC3 On Aged Cells,"MAP-LC3 [1]; H2O2 600 μM for 3 hours, aged cells",96%
same,Expression of MAP-LC3 On Young Cells,"MAP-LC3 [1]; H2O2 600 μM for 3 hours, young cells",143%
same,Expression of MAP-LC3 On Aged Cells,"MAP-LC3 [1]; H2O2 1000 μM for 3 hours, aged cells",92%
same,Expression of MAP-LC3 On Young Cells,"MAP-LC3 [1]; H2O2 1000 μM for 3 hours, young cells",117%
same,Expression of MAP-LC3,"MAP-LC3 [2]; H2O2 125 μM for 3 hours in non-nutritive medium, recovery time 0.5 hour, HaCaT and normal human keratinocytes",++
same,Expression of MAP-LC3,"MAP-LC3 [2]; H2O2 125 μM for 3 hours in non-nutritive medium, recovery time 1 hour",++
same,Expression of MAP-LC3,"MAP-LC3 [2]; H2O2 125 μM for 3 hours in non-nutritive medium, recovery time 1.5 hours",+++
same,Expression of MAP-LC3,"MAP-LC3 [2]; H2O2 125 μM for 3 hours in non-nutritive medium, recovery time 2 hours",++
same,Expression of MAP-LC3,"MAP-LC3 [2]; H2O2 250 μM for 3 hours in non-nutritive medium, recovery time 0.5 hour",++
same,Expression of MAP-LC3,"MAP-LC3 [2]; H2O2 250 μM for 3 hours in non-nutritive medium, recovery time 1 hour",+++
same,Expression of MAP-LC3,"MAP-LC3 [2]; H2O2 250 μM for 3 hours in non-nutritive medium, recovery time 1.5 hours",++
same,Expression of MAP-LC3,"MAP-LC3 [2]; H2O2 250 μM for 3 hours in non-nutritive medium, recovery time 2 hours",+
same,Expression of DRAM (%),protein DRAM; recovery time 0.5 hour,120%
same,Expression of DRAM (%),protein DRAM; recovery time 1 hour,180%
same,Expression of DRAM (%),protein DRAM; recovery time 1.5 hours,390%
same,Expression of DRAM (%),protein DRAM; recovery time 2 hours,200%
same,Phosphorylated Expression p53 (%),[3]; recovery time 0.5 hour,221%
same,Phosphorylated Expression p53 (%),[3]; recovery time 1 hour,140%
same,Phosphorylated Expression p53 (%),[3]; recovery time 2 hours,128%
